According to ChEMBL document CHEMBL3525943, “Regiospecific and stereospecific triangulation of the structures of metabolites formed by sequential metabolism at multiple prochiral centers” (Drug Metab Dispos, 2012):

Key:
[1] = Volume of distribution at steady state in rat; assay type: ADME, organism-based; conditions: in vivo, read-out: Vdss
[2] = Oral bioavailability in rat; assay type: ADME, organism-based; conditions: in vivo
[3] = Plasma protein binding in human; assay type: ADME, cell-free; conditions: read-out: PPB (converted)
[4] = Clearance in iv dosed rat; assay type: ADME, organism-based; conditions: in vivo
[5] = Plasma protein binding in rat; assay type: ADME, cell-free; conditions: read-out: PPB (converted)
[6] = Drug excretion in female Sprague-Dawley rat feces treated with [14C]-AMG 221 at 2 mg/kg, po measured over 24 hrs by LC-MS/HPLC radiometric analysis; assay type: ADME, organism-based; design: dose 2 mg/kg, route oral; conditions: in vivo
[7] = Drug excretion in female Sprague-Dawley rat urine treated with [14C]-AMG 221 at 2 mg/kg, po measured over 24 hrs by LC-MS/HPLC radiometric analysis; assay type: ADME, organism-based; design: dose 2 mg/kg, route oral; conditions: in vivo
[8] = Retention time of the compound in Sprague-Dawley rat urine treated with [14C]-AMG 221 at 2 mg/kg, po after 12 hrs by LC-MS/HPLC radiometric analysis; assay type: ADME, organism-based; design: dose 2 mg/kg, route oral; conditions: in vivo
[9] = Drug excretion in male Sprague-Dawley rat urine treated with [14C]-AMG 221 at 2 mg/kg, po measured over 24 hrs by LC-MS/HPLC radiometric analysis; assay type: ADME, organism-based; design: dose 2 mg/kg, route oral; conditions: in vivo
Rattus norvegicus = test: Total drug recovery in female Sprague-Dawley rat treated with [14C]-AMG 221 at 2 mg/kg, po measured over 48 hrs by liquid scintillation counting analysis; assay type: ADME, organism-based; design: dose 2 mg/kg, route oral; conditions: in vivo
[10] = Drug excretion in male Sprague-Dawley rat feces treated with [14C]-AMG 221 at 2 mg/kg, po measured over 24 hrs by LC-MS/HPLC radiometric analysis; assay type: ADME, organism-based; design: dose 2 mg/kg, route oral; conditions: in vivo
[11] = Drug level in Sprague-Dawley rat urine treated with [14C]-(S)-2-((1R,2S,4R,5S)-5-hydroxybicyclo[2.2.1]heptan-2-ylamino)-5-isopropyl-5-methylthiazol-4(5H)-one at 5 mg/kg, po measured over 24 hrs by LC-MS/HPLC radiometric analysis; assay type: ADME, organism-based; design: dose 5 mg/kg, route oral; conditions: in vivo
Plasma [12] = test: Retention time of the compound in Beagle dog plasma treated with [14C]-AMG 221 at 2 mg/kg, po measured at 0.5 hrs by LC-MS/HPLC radiometric analysis; assay type: ADME, organism-based, Canis lupus familiaris; design: dose 2 mg/kg, route oral; conditions: in vivo
Liver microsome [13] = test: Retention time of the compound in rat liver microsomes treated with ((S)-2-((1S,2S,4R)-bicyclo[2.2.1]heptan-2-ylamino)-5-(2-hydroxypropan-2-yl)-5-methylthiazol-4(5H)-one at 20 uM preincubated for 5 mins followed by NADPH addition measured after 60 mins by LC-MS/MS analysis; assay type: ADME; conditions: 1 h
Liver microsome [14] = test: Drug level in rat liver microsomes treated with (S)-2-((1S,2S,4R,6R)-6-hydroxybicyclo[2.2.1]heptan-2-ylamino)-5-isopropyl-5-methylthiazol-4(5H)-one at 20 uM preincubated for 5 mins followed by NADPH addition measured after 60 mins by LC-MS/MS analysis; assay type: ADME; conditions: 1 h
[15] = Retention time of the compound in Sprague-Dawley rat urine treated with [14C]-AMG 221 at 2 mg/kg, po measured over 24 hrs by LC-MS/HPLC radiometric analysis; assay type: ADME, organism-based; design: dose 2 mg/kg, route oral; conditions: in vivo
Liver microsome [16] = test: Retention time of the compound in rat liver microsomes treated with (S)-2-((1S,2S,4R)-bicyclo[2.2.1]heptan-2-ylamino)-5-(2-hydroxypropan-2-yl)-5-methylthiazol-4(5H)-one at 20 uM preincubated for 5 mins followed by NADPH addition measured after 60 mins by LC-MS/MS analysis; assay type: ADME; conditions: 1 h
Liver microsome [17] = test: Retention time of the compound in rat liver microsomes treated with [14C]-(S)-2-((1R,2S,4R,5S)-5-hydroxybicyclo[2.2.1]heptan-2-ylamino)-5-isopropyl-5-methylthiazol-4(5H)-one at 40 uM preincubated for 5 mins followed by NADPH addition measured after 60 mins by LC-MS/MS-radiometric analysis; assay type: ADME; conditions: 1 h
[18] = Retention time of the compound in urine of bile duct cannulated Sprague-Dawley rat treated with [14C]-(S)-2-((1R,2S,4R,5S)-5-hydroxybicyclo[2.2.1]heptan-2-ylamino)-5-isopropyl-5-methylthiazol-4(5H)-one at 5 mg/kg, po measured over 48 hrs by LC-MS/HPLC radiometric analysis; assay type: ADME, organism-based; design: dose 5 mg/kg, route oral; conditions: in vivo
[19] = Retention time of the compound in Beagle dog urine treated with [14C]-AMG 221 at 2 mg/kg, po measured over 24 hrs by LC-MS/HPLC radiometric analysis; assay type: ADME, organism-based, Canis lupus familiaris; design: dose 2 mg/kg, route oral; conditions: in vivo
Plasma [20] = test: Retention time of the compound in Sprague-Dawley rat plasma treated with [14C]-AMG 221 at 2 mg/kg, po measured at 0.5 hrs by LC-MS/HPLC radiometric analysis; assay type: ADME, organism-based; design: dose 2 mg/kg, route oral; conditions: in vivo
Liver microsome [21] = test: Retention time of the compound in rat liver microsomes treated with (S)-2-((1S,2S,4R)-bicyclo[2.2.1]heptan-2-ylamino)-5-((S)-1-hydroxypropan-2-yl)-5-methylthiazol-4(5H)-one at 20 uM preincubated for 5 mins followed by NADPH addition measured after 60 mins by LC-MS/MS analysis; assay type: ADME; conditions: 1 h
[22] = Retention time of the compound in bile duct cannulated Sprague-Dawley rat bile treated with [14C]-(S)-2-((1R,2S,4R,5S)-5-hydroxybicyclo[2.2.1]heptan-2-ylamino)-5-isopropyl-5-methylthiazol-4(5H)-one at 5 mg/kg, po measured over 48 hrs by LC-MS/HPLC radiometric analysis; assay type: ADME, organism-based; design: dose 5 mg/kg, route oral; conditions: in vivo

| SMILES | Drug excretion [6] [%] | Drug excretion [7] [%] | Drug excretion [9] [%] | Drug recovery (Rattus norvegicus) [%] | Drug excretion [10] [%] | Retention_time [15] [min] | also measured |
| --- | --- | --- | --- | --- | --- | --- | --- |
| CC(C)[C@]1(C)SC(N[C@H]2C[C@@H]3CC[C@H]2C3)=NC1=O | – | – | – | – | – | – | Vd [1]: 1 L/kg; bioavailability [2]: 30%; fraction unbound [3]: 0.15; clearance [4]: 50 mL/min/kg; fraction unbound [5]: 0.15 |
| CC(C)[C@]1(C)SC(N[C@H]2C[C@H]3C[C@@H]2C[C@@H]3O)=NC1=O | 24 | 24 | 17 | 24.2 | 17 | – | Retention_time [8]: 30.3 min |
| CC(C)[C@]1(C)SC(N[C@H]2C[C@H]3C[C@@H]2C[C@H]3O)=NC1=O | 37 | 37 | 29 | 4.7 | 29 | – | Retention_time [8]: 30.9 min |
| CC(C)[C@]1(C)SC(N[C@H]2C[C@H]3C[C@@H]2CC3=O)=NC1=O | – | – | – | 9.1 | – | – | Retention_time [8]: 33.3 min; Drug metabolism [11]: metabolite_detected |
| CC(C)[C@]1(C)SC(N[C@H]2C[C@H]3C[C@@H]2[C@H](O)C3)=NC1=O | 37 | 37 | 29 | 3.2 | 29 | – | Retention_time [8]: 33 min |
| C=C(C)[C@]1(C)SC(N[C@H]2C[C@@H]3CC[C@H]2C3)=NC1=O | – | – | – | – | – | – | Retention_time (Plasma [12]): 40.7 min |
| CC(C)(O)[C@]1(C)SC(N[C@H]2C[C@H]3C[C@@H]2[C@H](O)C3)=NC1=O | 24 | 24 | 8.3 | 2.4 | 8.3 | – | Retention_time (Liver microsome [13]): 16.8 min; Drug metabolism (Liver microsome [14]): metabolite_detected |
| CC(C)(O)[C@]1(C)SC(N[C@H]2C[C@H]3C[C@@H]2C[C@@H]3O)=NC1=O | 24 | 24 | 8.3 | – | 8.3 | – | Retention_time (Liver microsome [16]): 11.5 min; Retention_time (Liver microsome [17]): 11.5 min |
| C=C(C)[C@]1(C)SC(N[C@H]2C[C@H]3C[C@@H]2C[C@@H]3O)=NC1=O | – | – | – | 0.8 | – | 27.9 | – |
| C=C(C)[C@]1(C)SC(N[C@H]2C[C@H]3C[C@@H]2[C@H](O)C3)=NC1=O | – | – | – | 0.1 | – | – | Retention_time [19]: 29.9 min |
| CC(C)(O)[C@]1(C)SC(N[C@H]2C[C@H]3C[C@@H]2CC3=O)=NC1=O | – | – | – | – | – | 20.7 | – |
| CC(C)(O)[C@]1(C)SC(N[C@H]2C[C@H]3C[C@@H]2C[C@H]3O)=NC1=O | 24 | 24 | 8.3 | – | 8.3 | – | Retention_time [18]: 12.8 min |
| CC(CO[C@@H]1O[C@H](C(=O)O)[C@@H](O)[C@H](O)[C@H]1O)[C@]1(C)SC(N[C@H]2C[C@@H]3CC[C@H]2C3)=NC1=O (stereo partly drawn) | – | – | – | 0.1 | – | – | Retention_time [19]: 27.8 min |
| CC(C)[C@]1(C)SC(N[C@H]2C[C@H]3C[C@@H]2C[C@H]3O[C@@H]2O[C@H](C(=O)O)[C@@H](O)[C@H](O)[C@H]2O)=NC1=O | – | – | – | 0.2 | – | – | Retention_time [22]: 25.2 min |
| CC(C)[C@]1(C)SC(N[C@H]2C[C@H]3C[C@@H]2[C@H](O)[C@@H]3O)=NC1=O | 24 | 24 | 8.3 | 0.1 | 8.3 | 19.2 | – |

The next lines start with results.

| Drug excretion [6] [%] | Drug excretion [7] [%] | Drug excretion [9] [%] | Drug recovery (Rattus norvegicus) [%] | Drug excretion [10] [%] | Retention_time [15] [min] | SMILES | also measured |
| --- | --- | --- | --- | --- | --- | --- | --- |
| – | – | – | 0.1 | – | 9.2 | C[C@H](CO)[C@]1(C)SC(N[C@H]2C[C@H]3C[C@@H]2CC3=O)=NC1=O | – |
| 24 | 24 | 8.3 | 0.1 | 8.3 | – | C[C@@H](CO)[C@]1(C)SC(N[C@H]2C[C@H]3C[C@@H]2C[C@H]3O)=NC1=O | Retention_time [18]: 12.8 min |
| – | – | – | – | – | 25.8 | C[C@H](C(=O)O)[C@]1(C)SC(N[C@H]2C[C@@H]3CC[C@H]2C3)=NC1=O | – |
| – | – | – | 0.5 | – | – | C[C@@H](C(=O)O)[C@]1(C)SC(N[C@H]2C[C@@H]3CC[C@H]2C3)=NC1=O | Retention_time [19]: 35.7 min |
| 37 | 37 | 29 | 0.9 | 29 | – | CC(C)(O)[C@]1(C)SC(N[C@H]2C[C@@H]3CC[C@H]2C3)=NC1=O | Retention_time (Plasma [20]): 38.5 min |
| – | – | – | 2.1 | – | 14.1 | C[C@@H](CO)[C@]1(C)SC(N[C@H]2C[C@H]3C[C@@H]2CC3=O)=NC1=O | – |
| 24 | 24 | 8.3 | 2.9 | 8.3 | – | C[C@@H](CO)[C@]1(C)SC(N[C@H]2C[C@H]3C[C@@H]2C[C@@H]3O)=NC1=O | Retention_time (Liver microsome [21]): 11.5 min; Retention_time (Liver microsome [17]): 11.5 min |
| 24 | 24 | 8.3 | 0.2 | 8.3 | 8.5 | C[C@H](CO)[C@]1(C)SC(N[C@H]2C[C@H]3C[C@@H]2C[C@H]3O)=NC1=O | – |
| 24 | 24 | 8.3 | 0.1 | 8.3 | 9.9 | C[C@H](CO)[C@]1(C)SC(N[C@H]2C[C@H]3C[C@@H]2[C@H](O)C3)=NC1=O | – |
| 24 | 24 | 8.3 | 0.1 | 8.3 | – | CC(O)(CO)[C@]1(C)SC(N[C@H]2C[C@@H]3CC[C@H]2C3)=NC1=O (stereo partly drawn) | Retention_time [19]: 31.5 min |
| 24 | 24 | 8.3 | 1.2 | 8.3 | 7.2 | C[C@H](CO)[C@]1(C)SC(N[C@H]2C[C@H]3C[C@@H]2C[C@@H]3O)=NC1=O | Drug metabolism [11]: metabolite_detected |
| 37 | 37 | 29 | 2.6 | 29 | – | C[C@H](CO)[C@]1(C)SC(N[C@H]2C[C@@H]3CC[C@H]2C3)=NC1=O | Retention_time [8]: 34.6 min |
| 37 | 37 | 29 | 0.8 | 29 | – | C[C@@H](CO)[C@]1(C)SC(N[C@H]2C[C@@H]3CC[C@H]2C3)=NC1=O | Retention_time [8]: 37.5 min |
